# Biological target: T1, SUMO-activating enzyme subunit 2 (Human, UniProt Q9UBT2)
# T1 sequence (Q9UBT2 whole entry): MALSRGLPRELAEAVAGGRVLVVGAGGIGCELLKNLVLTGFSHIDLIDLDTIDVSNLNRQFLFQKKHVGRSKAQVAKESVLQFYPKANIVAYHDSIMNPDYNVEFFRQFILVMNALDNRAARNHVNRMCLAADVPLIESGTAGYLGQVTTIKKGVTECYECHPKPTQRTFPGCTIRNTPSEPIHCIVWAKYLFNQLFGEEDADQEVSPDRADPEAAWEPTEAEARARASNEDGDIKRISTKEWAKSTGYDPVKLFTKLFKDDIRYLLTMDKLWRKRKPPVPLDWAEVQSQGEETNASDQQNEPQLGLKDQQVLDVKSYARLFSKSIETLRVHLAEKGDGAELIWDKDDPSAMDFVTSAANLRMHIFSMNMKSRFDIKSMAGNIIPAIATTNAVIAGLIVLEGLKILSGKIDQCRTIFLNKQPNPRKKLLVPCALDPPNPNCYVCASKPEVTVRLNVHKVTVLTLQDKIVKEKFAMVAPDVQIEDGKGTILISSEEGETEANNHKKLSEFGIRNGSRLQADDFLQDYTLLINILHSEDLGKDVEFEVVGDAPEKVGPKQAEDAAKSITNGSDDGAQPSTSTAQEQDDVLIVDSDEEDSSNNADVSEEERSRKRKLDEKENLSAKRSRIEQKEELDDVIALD
# Assay: Enzyme Assay
# Experimental: After incubation for 2 hours at 24° C., quantification of FRET is performed on the Pherostar (BMG Labtech). Percentage inhibition values at a single concentration or enzyme inhibition (IC50) values are determined from those curves. One skilled in the art will appreciate that the values generated either as percentage inhibition at a single concentration or IC50 values are subject to experimental variation.
row,Compound,IC50 [nM]
1,"NS(=O)(=O)OC[C@H]1C[C@@H](Nc2ncncc2C(=O)c2cc(Cc3cccc(Br)n3)c(Cl)s2)C[C@@H]1O [US10780090, Compound I-46]",< 10
2,"Cc1sc(C(=O)c2cncnc2N[C@@H]2C[C@H](COS(N)(=O)=O)[C@@H](O)C2)cc1[S@+]([O-])c1cccc(C(F)(F)F)c1 [US10780090, Compound I-69]",< 10
3,"NS(=O)(=O)OC[C@H]1C[C@@H](Nc2ncncc2C(=O)c2cc(Cc3cccc(Br)c3)c(Cl)s2)C[C@@H]1O [US10780090, Compound I-112]",< 10
4,"CN1Cc2ccccc2[C@@H]1c1cc(C(=O)c2cncnc2N[C@@H]2C[C@H](COS(N)(=O)=O)[C@@H](O)C2)sc1Cl [US10780090, Compound I-304]",< 10
5,"CN1Cc2ccccc2[C@@H]1c1csc(C(=O)c2cncnc2N[C@@H]2C[C@H](COS(N)(=O)=O)[C@@H](O)C2)c1 [US10780090, Compound I-308]",< 10
6,"Cc1sc(C(=O)c2cncnc2N[C@@H]2C[C@H](COS(N)(=O)=O)[C@@H](O)C2)cc1[C@@H]1OCC(F)(F)c2ncccc21 [US10780090, Compound I-331]",100 to 1000
7,"CC(C)(C)OC(=O)N1CCc2ccc(Cl)cc2[C@@H]1c1csc(C(=O)c2cncnc2N[C@@H]2C[C@H](COS(N)(=O)=O)[C@@H](O)C2)c1 [US10780090, Compound I-334]",100 to 1000
8,"CC(C)(C)OC(=O)N1CCc2ccc(Cl)cc2[C@@H]1c1cc(C(=O)c2cncnc2N[C@@H]2C[C@H](COS(N)(=O)=O)[C@@H](O)C2)sc1Cl [US10780090, Compound I-336]",100 to 1000

# Continued, values first:
row,IC50 [nM],Compound
1,< 10,"Cc1sc(C(=O)c2cncnc2N[C@@H]2C[C@H](COS(N)(=O)=O)[C@@H](O)C2)cc1[C@@H]1OCC(F)(F)c2ccc(Cl)cc21 [US10780090, Compound I-288]"
2,< 10,"Cc1sc(C(=O)c2cncnc2N[C@@H]2C[C@H](COS(N)(=O)=O)[C@@H](O)C2)cc1[C@@H]1OCCc2ccc(C#N)cc21 [US10780090, Compound I-313]"
3,< 10,"C[C@@]1(c2csc(C(=O)c3cncnc3N[C@@H]3C[C@H](COS(N)(=O)=O)[C@@H](O)C3)c2)NCCc2ccccc21 [US10780090, Compound I-318]"
4,< 10,"CN(c1ncncc1C(=O)c1cc([C@@H]2OCCc3ccc(Cl)cc32)c(CO)s1)[C@@H]1C[C@H](COS(N)(=O)=O)[C@@H](O)C1 [US10780090, Compound I-366]"
